# Data published in PMC8921294, “Inhibition of mitochondrial LonP1 protease by allosteric blockade of ATP binding and hydrolysis via CDDO and its derivatives” (The Journal of Biological Chemistry, 2022).
# Where “and” joins values, the source holds several entries; their conditions need not be identical. Equal values may be shown once.
# Key:
# [1] = molecular target: T1, Human mitochondrial LonP1 (wild-type) ATPase (Homo sapiens, UniProt P36776); assay: Endpoint ATPase assay (ADP-Glo), wild-type LonP1; type: biochemical; details: end-point ATPase assay, 1 mM ATP, 60 min preincubation 25 °C; Table 1
# T1 construct: hexa-histidine (N); made in house; host or cells: Rosetta 2 E. coli
# T1 sequence (P36776 68-959): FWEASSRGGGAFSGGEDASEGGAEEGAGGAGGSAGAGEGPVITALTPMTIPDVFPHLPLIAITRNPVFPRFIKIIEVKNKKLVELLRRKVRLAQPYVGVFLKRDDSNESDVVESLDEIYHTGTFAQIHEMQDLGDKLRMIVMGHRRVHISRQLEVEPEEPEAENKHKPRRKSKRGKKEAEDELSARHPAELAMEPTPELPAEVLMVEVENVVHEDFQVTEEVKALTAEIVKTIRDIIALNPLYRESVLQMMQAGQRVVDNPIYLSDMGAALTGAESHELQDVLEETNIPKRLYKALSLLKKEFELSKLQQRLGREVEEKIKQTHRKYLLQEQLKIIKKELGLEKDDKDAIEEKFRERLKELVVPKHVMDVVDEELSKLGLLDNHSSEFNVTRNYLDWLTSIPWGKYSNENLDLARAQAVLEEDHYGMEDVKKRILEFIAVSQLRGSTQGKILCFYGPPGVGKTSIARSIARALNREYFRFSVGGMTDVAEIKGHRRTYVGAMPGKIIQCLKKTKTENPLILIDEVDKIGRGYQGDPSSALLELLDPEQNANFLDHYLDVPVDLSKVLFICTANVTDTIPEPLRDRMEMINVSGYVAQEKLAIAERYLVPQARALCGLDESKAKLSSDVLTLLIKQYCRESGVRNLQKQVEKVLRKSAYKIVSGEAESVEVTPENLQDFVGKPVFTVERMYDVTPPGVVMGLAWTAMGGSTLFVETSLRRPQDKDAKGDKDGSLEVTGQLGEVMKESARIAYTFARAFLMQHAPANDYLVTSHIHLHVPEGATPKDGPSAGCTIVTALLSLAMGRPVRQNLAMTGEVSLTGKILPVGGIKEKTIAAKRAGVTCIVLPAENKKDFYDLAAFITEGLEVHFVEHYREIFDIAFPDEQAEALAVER
# Experimental: ADP-Glo (Promega) assays were performed according to the manufacturer's protocols. Purified wild-type or mutant LonP1 (400 nM monomer), the 26S proteasome (3 nM), or no enzyme controls were preincubated in 96-well plates (60 min, 25 °C) with ten different concentrations of CDDO and its derivatives, TP-82, enoxolone (5 μM) or DMSO vehicle control in buffer (40 mM Tris-HCl (pH 7.5), 20 mM MgCl2, 0.1 mg/ml BSA and 5% DMSO). The 26S and 20S proteasome were also assayed at 0, 0.75, 1.5, 3, 6, and 12 nM in the absence of CDDO derivatives. UltraPure ATP (1 mM final) was added, and reactions (50 μl final) were incubated for 60 min at 25 °C, then 5 μl was transferred in quadruplicate to a 384-well plate. Assay reagents were used to quench further ATPase activity and generate luminescence signals proportional to the concentration of ADP formed. Background (no enzyme control) luminescence values were subtracted, and resultant values were reported as a percentage of the no drug control (100%). Data were fit to four-parameter dose–response curves using GraphPad Prism. The error bars represent the standard deviation (SD) of four replicate reactions from at least three independent experiments.
# [2] = molecular target: T2, Human mitochondrial LonP1 (LonP1^WT) ATPase (Homo sapiens, UniProt P36776); assay: Continuous NADH-coupled ATPase assay, wild-type LonP1; type: biochemical; details: for Modality (mechanism of LonP1 ATPase inhibition) / Ki / αKi / α: continuous ATPase assay; for Modality (mechanism of LonP1 ATPase inhibition): ATP titrated; for Ki: LonP1 400 nM, 30 min preincubation; for αKi: dissociation constant for ES complex; for α: relates αKi to Ki
# T2 construct: hexa-histidine (N); made in house; host or cells: Rosetta 2 E. coli
# T2 sequence (P36776 68-959): T1 sequence (P36776 68-959)
# Experimental: ATPase reactions (200 μl total) were performed in 96-well plates at room temperature. LonP1 (400 nM monomer) was preincubated with DMSO (1–2%) vehicle control or CDDO derivatives in buffer (50 mM HEPES-KOH pH 7.5, 5 mM magnesium acetate, 75 mM potassium acetate) for 30 to 45 min at room temperature or 30 °C. The reactions were initiated by the addition of phosphoenolpyruvate (PEP, 3 mM), NADH (300 μM), pyruvate kinase and lactate dehydrogenase (PK-LDH) (12–20 U/ml), and ATP concentrations as indicated. The change in NADH absorbance at 340 nm was monitored in Spectramax plate reader for 5 min to obtain reaction velocities. Data were fit to the Michaelis–Menten curve using GraphPad Prism 5, and the error bars represent the standard deviation (SD) of four replicate reactions from at least three independent experiments.
# [3] = tested on: heme oxygenase 1 (HO-1); assay: HO-1 stabilisation in HeLa ρ^0 cells (immunoblot); type: cell-based, human; details: 7 h
# Experimental: LonP1 knockdown stabilized HO-1 protein, whereas LonP1 overexpression decreased HO-1 protein (Fig. 4, E and F).
# HeLa cells devoid of mitochondrial DNA (HeLa ρ^0) and LCL cells were generated as described previously ([50]). DMEM, RPMI, and fetal bovine serum were purchased from Sigma. All cells were grown with 5% CO2 at 37 °C. LCL cells were cultured in RPMI supplemented with 15% FBS. HeLa Rho 0 cells were cultured in high glucose DMEM (25 mM) (Sigma) supplemented with sodium pyruvate ([…]) and uridine ([…]). CDDO-Me was purchased from Cayman chemicals, and CDDO-AH was synthesized as described previously ([20]). HEK293 cells plated in 60 mm dishes at a confluency of 60 to 70% were transfected with Control or 3′UTR LonP1 siRNA using Lipofectamine 2000 (Invitrogen) and reduced serum OPTI MEM (Sigma) as described in the manufacturer’s protocol to knockdown LonP1, whereas adenoviral transduction was employed to overexpress LonP1. CDDO-Me and CDDO-anhydride were dissolved in DMSO and serially diluted in the respective complete medium and added to HeLa ρ^0 cells and were treated for 7 or 24 h.
# Cells were harvested, centrifuged, and washed with PBS and proteins were extracted by adding the lysis buffer (50 mM Tris, [pH 7.5], 300 mM NaCl, and 0.5% Triton X-100) containing 2X Halt phosphatase and protease cocktail inhibitor (Thermo Scientific) for 20 min on ice. […]
IC50 [1] [µM],Modality (mechanism of LonP1 ATPase inhibition) [2],Ki [2] [µM],αKi [2],α [2],Ki relative to the Ki of other CDDO derivatives ([2]; fold higher) [fold],SMILES,Concentration stabilising HO-1 [3] [µM]
13 ± 6,noncompetitive,2.6 ± 0.5,14 ± 2 µM and 14.0 ± 2.0 µM,5.4,,"CC1(C)CC[C@]2(C(=O)O)CC[C@]3(C)[C@H](C(=O)C=C4[C@@]5(C)C=C(C#N)C(=O)C(C)(C)[C@@H]5CC[C@]43C)[C@@H]2C1 [CDDO, 2-cyano-3,12-dioxooleana-1,9(11)-dien-28-oic acid]",
19.4 ± 3.3,competitive,9.5 ± 1.4,,,~3.5,CC1(C)CC[C@]2(C(=O)OC(=O)[C@]34CCC(C)(C)C[C@H]3[C@H]3C(=O)C=C5[C@@]6(C)C=C(C#N)C(=O)C(C)(C)[C@@H]6CC[C@@]5(C)[C@]3(C)CC4)CC[C@]3(C)[C@H](C(=O)C=C4[C@@]5(C)C=C(C#N)C(=O)C(C)(C)[C@@H]5CC[C@]43C)[C@@H]2C1 [CDDO-anhydride],≥ 0.25
1.9 ± 0.3,noncompetitive,0.8 ± 0.1,3.3 ± 1.0 µM,4.3,,COC(=O)[C@]12CCC(C)(C)C[C@H]1[C@H]1C(=O)C=C3[C@@]4(C)C=C(C#N)C(=O)C(C)(C)[C@@H]4CC[C@@]3(C)[C@]1(C)CC2 [CDDO-Me],≥ 0.125
